This assay has as its system cats with MPTP-induced parkinsonism. Briefly: Parkinson's disease model: wakefulness in cats with MPTP-induced parkinsonism. It is filed as in vivo. Conditions: MPTP-treated cats displaying sleepiness. The text has this: The inventors also investigated the combination of 1-{3-[3-(4-chlorophenyl)propoxy]propyl}piperidine and modafinil on wakefulness in cats with MPTP-induced parkinsonism. MPTP is a neurotoxin which selectively destroys dopaminergic neurons in the mesencephalon. MPTP-treated animals display sleepiness similar to that seen in many patients.

Results on one compound are retold here after patent US20090312367A1, “COMBINATION OF MODAFINIL AND AN ANTAGONIST OR INVERSE AGONIST OF THE H3 RECEPTOR” (Bioprojet, priority 2006, published 2009).

In the case of `NC(=O)C[S+]([O-])C(c1ccccc1)c1ccccc1` (stereo not shown) [modafinil, 2-benzhydrylsulfinylthanamide], the wakefulness entry is recorded as “only a modest improvement in wakefulness”.
